These substances were tested on epithelial cells (assay: secondary library screening and structure/activity relationship studies). Settings: not given.
Assay type: cell-based
Source text: Through additional secondary library screening and structure/activity relationship studies, other ligands for epithelial cells have been identified, including the following: • c-D-G-Chg-G-A-N-c; c-N-G-Bpa-G-Q-M-c; c-N-G-Acdt-G-D-Bpa-c; cNGTGDGc; • cNGQGAGc; cNGYGSFc; c-N-G-Nle-G-Y-G-c; cNGMGAYc; cNGQGEQc; • cRGNGTDc; cNGQGPLc; cNGLGRSc; cDGMGSNc; cNGLGQYc; and • cNGYGTTc.

Row | Substance | identified as ligand for epithelial cells
1 | c-D-G-Chg-G-A-N-c | identified
2 | c-N-G-Acdt-G-D-Bpa-c | identified
3 | c-N-G-Bpa-G-Q-M-c | identified
4 | c-N-G-Nle-G-Y-G-c | identified
5 | cDGMGSNc | identified
6 | cNGLGQYc | identified
7 | cNGLGRSc | identified
8 | cNGMGAYc | identified
9 | cNGQGAGc | identified
10 | cNGQGEQc | identified
11 | cNGQGPLc | identified
12 | cNGTGDGc | identified
13 | cNGYGSFc | identified
14 | cNGYGTTc | identified
15 | cRGNGTDc | identified

Each substance was assayed on ovarian cancer cell line CaOV3 (assay: cell-growth-on-bead assay, CaOV3). Settings: Example 2, cXXXXXXc library, 24 to 72 hours.
Assay type: cell-based, human
Description: (§1) The ratio of cells to beads is preferably about 10:1, but can range from about 1:1 to 100:1. The suspension of cells 10 and beads 12 is mixed gently for sufficient time to assure contact of beads 12 with suspended cells 10. The culture plates are incubated in a tissue culture incubator at about 4° C. to about 37° C., preferably 37° C., for a period of about 24 to about 72 hours. The suspension of cells 10 and beads 12 may be kept still or mixed, either continuously or intermittently, during the incubation period.
(§2) After the incubation period, beads 12 are observed under a dissecting microscope. […] These beads 14 (referred to as “positive” beads) are removed from the culture plates. A tetrazolium dye that stains live, but not dead, cells can be used to facilitate the identification and removal of the positive beads. If a dye is used, all of the beads are removed after the incubation period and resuspended in fresh medium in new culture plates. The dye is added. The plates are then incubated in a tissue culture incubator at 25° C. to 37° C. for about one to four hours. Live cells 10 convert the dye to a colored metabolite, which results in beads 14 with attached cells appearing colored, allowing them to be easily distinguished from beads 16 without attached cells, which appear colorless, as shown in FIG. 1E. Other dyes that stain live cells can also be used. After positive beads 14 are removed from the plates, attached cells 10 are separated from the beads. This can be done with the addition of a chaotrophic agent, such as 8 M guanidine hydrochloride, or a protease, such as trypsin.
(§3) About 150,000 peptide beads were mixed with approximately one million suspended cells in 15 ml of culture medium and distributed into six 3-cm culture plates. The culture plates were agitated gently at about 100 rpm for about 10 minutes. The culture plates were then incubated in a tissue culture incubator at 37° C. for about 24 hours to about 72 hours.
(§4) A dissecting microscope was used to examine the beads at about 24, 48, and 72 hours. After about 24 to 72 hours, beads with a monolayer of cells were observed.
(§5) At the end of the incubation period, all of the beads were removed and resuspended in fresh medium in a new culture plate. An MTT ([3-(4,5-dimethylthiazol-2-yl)-2,5-diphenyl] tetrazolium bromide) (Sigma, St. Louis, Mo.) dye solution was added to each culture plate to a final concentration of 0.5 mg/ml. The plates were incubated in a tissue culture incubator at 37° C. for about two hours to allow the purple color to develop. Each purple-colored peptide bead was isolated and removed. The attached cells were separated from the beads with 8 M guanidine hydrochloride.
(§6) The amino acid sequence of each isolated peptide bead was determined using an automated Procise 494 protein sequencer (Applied Biosystems, Foster City, Calif.). Several consensus peptide sequences were determined, one of which was cNGRGEQc. This peptide was resynthesized on beads, which were then rescreened with the A549 cells using the assay of the invention.
The method as described in Example 1 was performed, except that the combinatorial peptide library was screened with a different type of epithelial cancer cells, the ovarian cancer cell line CaOV3 (American Type Culture Collection).
(§7) As described in Example 1, after culturing for about 24 to 72 hours, beads with a monolayer of cells were observed. These positive beads were isolated and the amino acid sequence of each positive bead was determined, as described in Example 1.
The method as described in Example 1 was performed, except that a different combinatorial library was used and different types of epithelial cancer cells were used. The peptide library of Example 3 was used, except that the concentration of peptides on the surface of each bead was 20% of that used in Example 3, resulting in an increase in screening stringency. […]

Row | Substance | identified as ligand (positive bead with monolayer of cells)
16 | cDGLGDDc | identified
17 | cDGWGPNc | identified

Same assay, conditions: Example 4, cX2GX4GX6X7c library, peptide concentration on bead surface 20% of Example 3

Row | Substance | identified as ligand (positive bead with monolayer of cells)
18 | c-D-G-Cha-G-Hyp-N-c | identified
19 | c-d-G-Chg-G-Hyp-N-c | identified
20 | c-d-G-M-G-HoSer-Nle-c | identified
21 | c-d-G-M-G-S-Cha-c | identified
22 | c-d-G-Tyr(3-NO2)-G-F-L-c | identified
23 | c-d-G-Tyr(3-NO2)-G-i-Pra-c | identified
24 | cdGMGSAc | identified

These substances were tested on epithelial ovarian cancer cell line SKOV-3 (assay: cell-growth-on-bead assay, SKOV-3). Settings: Example 3, cX2GX4GX6X7c library, 24 to 72 hours.
Assay type: cell-based, human
Description: as §1, §2, §3, §4, §5, §6
(§8) The method as described in Example 1 was performed, except that a different combinatorial library was used and different types of epithelial cancer cells were used. A one-bead-one-compound combinatorial peptide library was prepared according to the method described in Example 1, with the following formula: cX2GX4GX6X7c, where “c” is D-cysteine; “G” is glycine; X2 is D,d,N, n, S,Q,q,T, HoSer, Cit, E, e, HoCit, Hyp, Aad, Lys(Ac), A, 4-Pal, D-3-Pal, Pra, D-Pra, Y, Aib, M, Phe(4-CN), Tyr(3-NO2), Tyr(Me), Phe(4-NO2), Bug, Ach, Tyr(3,5-I), Aic, Phe(3-Cl), Chg, Bta, Bpa, Phe(3,4-Cl), Hyp(Bzl), or Cha; and X4, X6 and X7 are N, S, Q, T, HoSer, Cit, HoCit, Hyp, H, A, Pal, D-3-Pal, Pra, R, Y, Aib, Abu, P, M, V, Nva, Tyr(3-NO2), W, Phg, Phe(4-NO2), Bug, I, Ach, L, Nle, Phe(4-Me), Aic, Phe(3-Cl), HoPhe, Chg, Bta, Bpa, 2-Nal, 1-Nal, Phe(3,4-Cl), Hyp(Bzl), or Cha. […]

Row | Substance | identified as ligand (positive bead with monolayer of cells)
25 | c-d-G-(4-Pal)-G-Tyr(3-NO2)-Cha-c | identified
26 | c-d-G-Cha-G-1-T-c | identified
27 | c-d-G-Cit-G-Hyp(Bzl)-M-c | identified
28 | c-d-G-Nva-G-Phe (4-CN)-F-c | identified
29 | c-d-G-Phe(4-Me)-G-T-Pra-c | identified
30 | c-d-G-Phg-G-P-F-c | identified
31 | c-d-G-Tyr(3NO2)-G-Pra-G-c | identified
32 | cdGIGPQc | identified
33 | cdGLGFTc | identified

Same assay, conditions: Example 4, cX2GX4GX6X7c library, peptide concentration on bead surface 20% of Example 3

Row | Substance | identified as ligand (positive bead with monolayer of cells)
34 | c-d-G-A-G-Bta-L-c | identified
35 | c-d-G-L-G-S-Bpa-c | identified
36 | c-d-G-Nle-G-Phe(3-Cl)-S-c | identified
37 | c-d-G-Tyr(3-NO2)-G-Nle-H-c | identified
38 | c-d-G-Tyr(3-NO2)-G-Phg-M-c | identified

What follows are substances tested on epithelial ovarian cancer cell line ES-2 (assay: cell-growth-on-bead assay, ES-2). Settings: Example 3, cX2GX4GX6X7c library, 24 to 72 hours.
Assay type: cell-based, human
Description: as §1, §2, §3, §4, §5, §6, §8

Row | Substance | identified as ligand (positive bead with monolayer of cells)
39 | c-d-G-Cha-G-HoCit-S-c | identified
40 | c-d-G-L-G-HoSer-T-c | identified
41 | c-d-G-Phe(3-Cl)-G-Q-F-c | identified
42 | c-d-G-Phe(4Me)-G-P-Cha-c | identified
43 | c-d-G-Tyr(Me)-G-T-M-c | identified
44 | c-d-G-V-G-Hyp-HoSer-c | identified
45 | cdGLGYYc | identified

Same assay, conditions: Example 4, cX2GX4GX6X7c library, peptide concentration on bead surface 20% of Example 3

Row | Substance | identified as ligand (positive bead with monolayer of cells)
46 | c-d-G-Aib-G-Aib-N-c | identified
47 | c-d-G-Aib-G-P-S-c | identified
48 | c-d-G-Bta-G-Hyp-Y-c | identified
49 | c-d-G-Cha-G-Bta-Q-c | identified
50 | c-d-G-Cha-G-HoCit-Q-c | identified
51 | c-d-G-HoCit-G-P-Q-c | identified
52 | c-d-G-Phe(4-Me)-G-Aib-S-c | identified
53 | cdGLGWGc | identified

These substances were tested on non-epithelial glioblastoma brain cancer cell line A-172 (assay: cell-growth-on-bead assay, A-172). Settings: Example 5, library of Example 3, 24 to 72 hours.
Assay type: cell-based, human
Description: as §1, §2, §3, §4, §5, §6
The method as described in Example 1 was performed, except that a different combinatorial library was used and non-epithelial cancer cells were used. A one-bead-one-compound combinatorial peptide library was prepared as described in Example 3.
The peptide library was screened with the non-epithelial glioblastoma brain cancer cell line A-172 (American Type Culture Collection).
as §7

Row | Substance | identified as ligand (positive bead with monolayer of cells)
54 | c-D-G-L-G-P-HoPhe-c | identified
55 | c-N-G-Nle-G-(4-Pal)-M-c | identified
56 | c-d-G-(4-Pal)-G-Phe (4-Me)-T-c | identified
57 | c-e-G-L-G-Nle-M-c | identified
58 | c-e-G-N-G-S-(1-Nal)-c | identified
59 | c-e-G-y-G-Hyp-W-c | identified
60 | cDGLGDDc | identified
61 | cDGWGPNc | identified

— patent US7262269B2, “Method for screening combinational bead library; ligands for cancer cells” (The Regents of University of California, priority 2001, dated 2007)
